Earlier results on three compounds are cited in patent publication US20070196528A1, “Cosmetic composition based on caper flower bud extract” (GATTEFOSSE S.A.S., priority 2004, published 2007).

In the series the test system is oedemas in rats. The note with it: Pharmazie 43 (1988); cited from earlier work.

For `CC(C)=CCC/C(C)=C/CC/C(C)=C/CC/C(C)=C/CC/C(C)=C\CC/C(C)=C\CC/C(C)=C\CC/C(C)=C\CC/C(C)=C\CC/C(C)=C\CC/C(C)=C\CC/C(C)=C\CC/C(C)=C\CO` [Cappaprenol-13], the Anti-inflammatory activity entry was “providing this anti-inflammatory activity”.
On to `CC(C)=CCC/C(C)=C/CC/C(C)=C/CC/C(C)=C/CC/C(C)=C/CC/C(C)=C/CC/C(C)=C/CC/C(C)=C/CC/C(C)=C/CC/C(C)=C/CC/C(C)=C/CC/C(C)=C/CC/C(C)=C/CC/C(C)=C/CO` [Cappaprenol-14], for which the Anti-inflammatory activity result is recorded as “providing this anti-inflammatory activity”.
Cappaprenol-12: the Anti-inflammatory activity entry is “providing this anti-inflammatory activity”.
